Results published in patent US20100003250A1, “(2-ARYL-7H-PYRROLO[2,3-D]PYRIMIDIN-4-YL)MORPHOLINE COMPOUNDS, THEIR USE AS MTOR KINASE AND PI3 KINASE INHIBITORS, AND THEIR SYNTHESES” (Wyeth, priority 2008, published 2010).

What was measured:
Assay type in all cases: biochemical
PI3Kγ = PI3Kγ (Homo sapiens, UniProt P48736); assay: PI3K-gamma fluorescence polarization assay; conditions: 20 μM PIP2, 25 μM ATP; read-out: PI3Kγ Median IC50
Method in brief: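 Enzyme preincubated with compound in 20 mM HEPES pH 7.5, 2 mM MgCl2, 0.05% CHAPS, 0.01% βME; reaction started with substrate giving 20 μM diC8 PIP2 and 25 μM ATP final, run 30-60 min at room temperature. Stopped with TAMRA-labelled PIP3 detector probe plus GST-GRP; PIP3 formation read by fluorescence polarization after 90-110 min.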

PI3Kα = PI3Kα (Homo sapiens, UniProt P42336); assay: PI3K-alpha fluorescence polarization assay; conditions: 20 μM PIP2, 25 μM ATP; read-out: PI3Kα Median IC50
Chain of PI3Kα (P42336 whole entry, species assumed): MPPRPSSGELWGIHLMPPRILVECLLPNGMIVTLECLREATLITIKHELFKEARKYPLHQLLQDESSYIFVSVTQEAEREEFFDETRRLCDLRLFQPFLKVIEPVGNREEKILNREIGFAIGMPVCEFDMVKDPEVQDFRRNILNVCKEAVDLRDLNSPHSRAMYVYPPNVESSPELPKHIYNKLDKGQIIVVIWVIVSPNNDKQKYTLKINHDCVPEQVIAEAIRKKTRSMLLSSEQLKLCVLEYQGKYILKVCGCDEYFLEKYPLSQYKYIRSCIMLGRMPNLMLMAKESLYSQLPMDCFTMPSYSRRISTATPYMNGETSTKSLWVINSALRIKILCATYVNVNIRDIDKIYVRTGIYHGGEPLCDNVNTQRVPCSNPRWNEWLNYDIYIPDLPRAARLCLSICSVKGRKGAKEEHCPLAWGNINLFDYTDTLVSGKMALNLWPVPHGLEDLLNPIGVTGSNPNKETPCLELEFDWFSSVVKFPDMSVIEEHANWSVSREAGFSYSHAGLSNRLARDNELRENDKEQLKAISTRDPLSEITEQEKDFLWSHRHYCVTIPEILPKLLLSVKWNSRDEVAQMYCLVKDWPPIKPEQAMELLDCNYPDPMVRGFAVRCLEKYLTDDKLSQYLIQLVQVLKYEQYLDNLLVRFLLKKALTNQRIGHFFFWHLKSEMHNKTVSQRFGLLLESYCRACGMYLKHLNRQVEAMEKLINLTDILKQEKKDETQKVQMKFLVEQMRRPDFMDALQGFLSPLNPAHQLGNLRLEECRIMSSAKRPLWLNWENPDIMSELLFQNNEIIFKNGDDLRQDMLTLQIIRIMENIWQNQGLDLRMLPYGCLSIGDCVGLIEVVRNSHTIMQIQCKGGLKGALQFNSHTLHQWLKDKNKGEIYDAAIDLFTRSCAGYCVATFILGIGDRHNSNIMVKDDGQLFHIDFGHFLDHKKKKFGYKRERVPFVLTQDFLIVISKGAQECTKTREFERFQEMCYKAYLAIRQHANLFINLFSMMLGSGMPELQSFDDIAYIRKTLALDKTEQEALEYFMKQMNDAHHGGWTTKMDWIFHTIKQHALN
Chain of PI3Kα (P27986 whole entry partner, species assumed): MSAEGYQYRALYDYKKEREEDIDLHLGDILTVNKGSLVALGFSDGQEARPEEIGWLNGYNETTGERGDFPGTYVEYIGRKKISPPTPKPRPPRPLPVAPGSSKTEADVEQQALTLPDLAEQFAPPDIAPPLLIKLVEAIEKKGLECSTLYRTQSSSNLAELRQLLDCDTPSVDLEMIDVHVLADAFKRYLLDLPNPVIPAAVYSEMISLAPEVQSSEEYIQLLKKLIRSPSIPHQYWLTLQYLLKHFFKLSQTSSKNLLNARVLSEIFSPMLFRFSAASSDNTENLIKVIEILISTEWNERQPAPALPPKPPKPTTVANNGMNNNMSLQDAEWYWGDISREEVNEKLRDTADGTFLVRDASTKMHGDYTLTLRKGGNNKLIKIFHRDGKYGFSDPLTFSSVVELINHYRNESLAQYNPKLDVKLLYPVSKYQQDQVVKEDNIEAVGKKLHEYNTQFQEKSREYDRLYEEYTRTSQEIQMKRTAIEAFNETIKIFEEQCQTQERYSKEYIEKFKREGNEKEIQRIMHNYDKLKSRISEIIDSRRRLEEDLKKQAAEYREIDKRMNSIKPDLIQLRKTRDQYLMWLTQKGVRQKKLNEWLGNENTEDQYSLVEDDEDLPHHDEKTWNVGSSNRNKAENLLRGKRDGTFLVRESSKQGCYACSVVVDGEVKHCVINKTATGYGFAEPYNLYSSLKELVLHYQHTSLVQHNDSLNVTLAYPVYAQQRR

mTOR Kinase (FLAG-TOR) = target: T1, mTOR Kinase (FLAG-TOR) (Homo sapiens, UniProt P42345); assay: mTOR kinase assay, purified enzyme, DELFIA format; conditions: 100 μM ATP, 1.25 μM His6-S6K; read-out: mTOR Kinase Median IC50
T1 construct: FLAG

Chain of PI3Kγ (P48736 whole entry, species assumed): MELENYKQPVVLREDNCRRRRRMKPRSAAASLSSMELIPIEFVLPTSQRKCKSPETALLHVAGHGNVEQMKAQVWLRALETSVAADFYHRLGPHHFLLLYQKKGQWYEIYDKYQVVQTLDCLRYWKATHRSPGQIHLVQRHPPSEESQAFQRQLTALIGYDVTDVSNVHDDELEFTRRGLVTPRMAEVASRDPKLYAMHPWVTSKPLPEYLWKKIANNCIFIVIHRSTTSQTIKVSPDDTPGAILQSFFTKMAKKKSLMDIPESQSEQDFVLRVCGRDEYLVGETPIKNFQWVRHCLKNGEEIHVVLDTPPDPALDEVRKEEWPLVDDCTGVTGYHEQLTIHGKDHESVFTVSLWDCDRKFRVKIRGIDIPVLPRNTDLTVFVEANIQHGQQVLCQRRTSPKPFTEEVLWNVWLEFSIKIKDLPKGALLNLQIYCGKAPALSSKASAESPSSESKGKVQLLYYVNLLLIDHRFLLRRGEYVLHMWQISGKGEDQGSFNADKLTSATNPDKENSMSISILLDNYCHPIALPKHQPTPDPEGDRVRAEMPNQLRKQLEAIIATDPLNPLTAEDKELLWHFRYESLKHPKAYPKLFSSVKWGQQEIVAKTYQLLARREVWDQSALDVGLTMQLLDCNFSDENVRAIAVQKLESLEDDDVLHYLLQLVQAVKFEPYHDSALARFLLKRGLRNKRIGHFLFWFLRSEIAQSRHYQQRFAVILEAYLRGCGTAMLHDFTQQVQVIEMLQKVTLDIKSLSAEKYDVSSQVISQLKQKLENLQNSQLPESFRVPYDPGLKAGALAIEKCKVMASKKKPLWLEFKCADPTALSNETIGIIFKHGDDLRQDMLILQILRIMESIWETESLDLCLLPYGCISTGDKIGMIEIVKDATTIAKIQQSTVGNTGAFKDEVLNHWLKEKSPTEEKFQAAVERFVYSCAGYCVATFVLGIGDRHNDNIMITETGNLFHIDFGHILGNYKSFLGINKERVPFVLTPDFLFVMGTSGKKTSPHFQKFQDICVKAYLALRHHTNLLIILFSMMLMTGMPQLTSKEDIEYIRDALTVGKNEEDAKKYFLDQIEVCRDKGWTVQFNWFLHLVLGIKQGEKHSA

Structure (SMILES)	IC50 (PI3Kγ)	IC50 (PI3Kα)	IC50 (mTOR Kinase (FLAG-TOR))
O=C(Nc1ccc(C(=O)NCCN2CCCCC2)cc1)Nc1ccc(-c2nc(N3CCOCC3)c3ccn(CC(F)(F)F)c3n2)cc1 [Compound 56, 4-[({4-[4-morpholin-4-yl-7-(2,2,2-trifluoroethyl)-7H-pyrrolo[2,3-d]pyrimidin-2-yl]phenyl}carbamoyl)amino]-N-(2-piperidin-1-ylethyl)benzamide]	40 nM	2.6 nM	0.53 nM
CNCCN(C)C(=O)c1ccc(NC(=O)Nc2ccc(-c3nc(N4CCOCC4)c4ccn(CC(F)(F)F)c4n3)cc2)cc1 [Compound 53, N-methyl-N-[2-(methylamino)ethyl]-4-[({4-[4-morpholin-4-yl-7-(2,2,2-trifluoroethyl)-7H-pyrrolo[2,3-d]pyrimidin-2-yl]phenyl}carbamoyl)amino]benzamide]	16 nM	< 2.1 nM	0.57 nM
CC(C)(C)NCCn1ccc2c(N3CCOCC3)nc(-c3ccc(NC(=O)Nc4ccncc4)cc3)nc21 [Compound 31, 1-(4-{7-[2-(tert-butylamino)ethyl]-4-morpholin-4-yl-7H-pyrrolo[2,3-d]pyrimidin-2-yl}phenyl)-3-pyridin-4-ylurea]	404 nM	86 nM	25.5 nM
CN(C)CCCNC(=O)Nc1ccc(-c2nc(N3CCOCC3)c3ccn(CCN(C)C)c3n2)cc1 [Compound 15, 1-(4-{7-[2-(dimethylamino)ethyl]-4-morpholin-4-yl-7H-pyrrolo[2,3-d]pyrimidin-2-yl}phenyl)-3-[3-(dimethylamino)propyl]urea]	4360 nM	162 nM	3400 nM

Further lines, results first:

IC50 (PI3Kγ)	IC50 (PI3Kα)	IC50 (mTOR Kinase (FLAG-TOR))	Structure (SMILES)
20 nM	< 1.9 nM	0.43 nM	CCn1ccc2c(N3CCOCC3)nc(-c3ccc(NC(=O)Nc4ccc(C(=O)N(C)CCN(C)C)cc4)cc3)nc21 [Compound 61, N-[2-(dimethylamino)ethyl]-4-({[4-(7-ethyl-4-morpholin-4-yl-7H-pyrrolo[2,3-d]pyrimidin-2-yl)phenyl]carbamoyl}amino)-N-methylbenzamide]
> 10000 nM	11000 nM	1350 nM	CC(C)(C)OC(=O)N1CCC(n2ccc3c(N4CCOCC4)nc(-c4ccc(NC(=O)Nc5cccnc5)cc4)nc32)CC1 [Compound 94, tert-butyl 4-(4-morpholin-4-yl-2-{4-[(pyridin-3-ylcarbamoyl)amino]phenyl}-7H-pyrrolo[2,3-d]pyrimidin-7-yl)piperidine-1-carboxylate]
30 nM	3.5 nM	2.4 nM	CCn1ccc2c(N3CCOCC3)nc(-c3ccc(NC(=O)Nc4ccc(C(=O)N5CCOCC5)cc4)cc3)nc21 [Compound 66, 1-[4-(7-ethyl-4-morpholin-4-yl-7H-pyrrolo[2,3-d]pyrimidin-2-yl)phenyl]-3-[4-(morpholin-4-ylcarbonyl)phenyl]urea]
151 nM	25.7 nM	0.81 nM	CC(C)n1ccc2c(N3CCOCC3)nc(-c3ccc(NC(=O)Nc4ccc(C(=O)O)cc4)cc3)nc21 [Compound 90, 4-({[4-(7-isopropyl-4-morpholin-4-yl-7H-pyrrolo[2,3-d]pyrimidin-2-yl)phenyl]carbamoyl}amino)benzoic acid]
38 nM	4.3 nM	0.59 nM	CC(C)n1ccc2c(N3CCOCC3)nc(-c3ccc(NC(=O)Nc4ccc(C(=O)N5CCC(N6CCCC6)CC5)cc4)cc3)nc21 [Compound 88, 1-[4-(7-isopropyl-4-morpholin-4-yl-7H-pyrrolo[2,3-d]pyrimidin-2-yl)phenyl]-3-{4-[(4-pyrrolidin-1-ylpiperidin-1-yl)carbonyl]phenyl}urea]
511 nM	116 nM	4.8 nM	COC(=O)c1ccc(NC(=O)Nc2ccc(-c3nc(N4CCOCC4)c4ccn(C(C)C)c4n3)cc2)cc1 [Compound 89, methyl 4-({[4-(7-isopropyl-4-morpholin-4-yl-7H-pyrrolo[2,3-d]pyrimidin-2-yl)phenyl]carbamoyl}amino)benzoate]
